Structures are written as SMILES.

The test addresses T1, STK33 (Homo sapiens, UniProt Q9BYT3).
T1 construct: purchased Thermo Fisher Scientific (Life Technologies) SelectScreen
The experiment in a line: SelectScreen LanthaScreen. Format: binding. The settings on record: read-out: % displacement. In outline: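 NU5455 was profiled across the SelectScreen Broad panel of kinase activity and binding assays. Z'LYTE reactions such as CSF1R ran at apparent Km ATP, while the Adapta CAMK1 assay used ATP listed as 10. Values are given as percent.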

T1 sequence (Q9BYT3 whole entry): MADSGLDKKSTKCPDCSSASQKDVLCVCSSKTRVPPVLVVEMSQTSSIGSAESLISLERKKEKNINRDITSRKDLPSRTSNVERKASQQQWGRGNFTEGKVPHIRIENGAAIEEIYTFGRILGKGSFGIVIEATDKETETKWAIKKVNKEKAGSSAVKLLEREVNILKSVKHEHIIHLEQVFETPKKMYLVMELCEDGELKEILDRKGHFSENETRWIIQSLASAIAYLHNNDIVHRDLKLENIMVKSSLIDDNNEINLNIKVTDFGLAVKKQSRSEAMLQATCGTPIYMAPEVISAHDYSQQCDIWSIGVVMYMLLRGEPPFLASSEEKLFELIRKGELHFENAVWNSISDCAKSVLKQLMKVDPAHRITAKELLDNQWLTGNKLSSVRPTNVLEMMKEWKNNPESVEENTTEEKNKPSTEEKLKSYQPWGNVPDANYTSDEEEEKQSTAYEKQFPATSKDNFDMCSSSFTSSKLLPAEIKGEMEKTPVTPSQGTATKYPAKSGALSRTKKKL

For the compound `CN(C(=O)CN1CCOCC1)c1ccc2sc3c(-c4cccc5c(=O)cc(N6CC7CCC(C6)O7)oc45)cccc3c2c1` [NU5455], the inhibition at 1 µM was 4.7%.

The values are drawn from paper PMC6934184, “Selective DNA-PKcs inhibition extends the therapeutic index of localized radiotherapy and chemotherapy” (The Journal of Clinical Investigation, 2019).
